The target in data set [1] is Multidrug resistance protein CDR1 (Candida albicans, UniProt P43071). Description: inhibition of Nile Red efflux via Candida CDR1 – S. cerevisiae AD1-8u, singleplex, Cherry Pick1 hits, dose response (AID 588606). It is filed as functional.
In data set [2] the target is Benomyl/methotrexate resistance protein (Candida albicans, UniProt P28873). Description: Candida albicans Mdr1 pump inhibition curves – singleplex, Cherry Pick1 hits, dose response (AID 588608). The format is functional.
Data set [3] concerns the target Protein disulfide-isomerase (Homo sapiens, UniProt P07237). Description: inhibition of PDI-driven insulin aggregation – biochemical, turbidity, absorbance, cherry-picked samples, dose response (AID 602350). The format is functional.
The subject of data set [4] is BJ. Put plainly: growth inhibition of engineered Ras-driven BJ cells – cell-based, alamar blue fluorescence, cherrypicked samples, dose response (AID 2631).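 Also: confirmatory dose-response assay in RAS-dependent BJ fibroblasts engineered with TERT, LT and ST, with cytotoxicity read by fluorescence.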 It is filed as functional. Conditions: Homo sapiens. Background: The colour change of resazurin is a common sign of viable cells or microbes.
For data set [5], the system named is BJ. Put plainly: BJ-TERT-LT-ST fibroblast viability loss – cell-based, RAS-independent, luminescence, dose response (AID 1935).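 Also: BJ fibroblasts immortalized with TERT plus LT and ST oncogenes.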 Conditions: Homo sapiens. It is filed as functional.
Data set [6] in a line: luciferase reporter signal reduction – luminescence, H4-C neuroglioblastoma cells, dose response (AID 2458).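 Also: H4 neuroglioblastoma cells stably carrying a luciferase reporter gene fusion.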 It is filed as functional, cell-based. (In general: A reporter such as luciferase makes a cellular process visible.)
Data set [7] in a line: Luminescence Cell-Based Dose Confirmation HTS to Identify Inhibitors of 5'UTR Stem-Loop Driven Alpha-Synuclein mRNA Translation in H4 Neuroglioblastoma Cells. [Related pubchem assays: 1827 (Project Summary), 1813 (Primary HTS)]. It is filed as functional.
Data set [8] in a line: cells. The format is functional, cell-based.
The nature of data set [9]: DRD fibroblast viability loss – cell-based, non-viral oncogenic, luminescence, dose response (AID 1934). The format is functional. Conditions: Homo sapiens.
Data set [10] in a line: luciferase reporter signal suppression in cells – H4 neuroglioma cells, luminescence, dose response (AID 1990). It is filed as functional, cell-based.
The nature of data set [11]: Luminescence Cell-Based Dose Response HTS to Identify Inhibitors of 5'UTR Stem-Loop Driven Prion Protein mRNA Translation in H4 Neuroglioblastoma Cells. [Related pubchem assays: 1827 (Project Summary), 1813 (Primary HTS)]. It is filed as functional.
Data set [12] is described as follows: Luminescence Cell-Based Dose Response HTS to Identify Inhibitors of Luciferase Translation or Activity in H4-C Neuroglioblastoma Cells. [Related pubchem assays: 1813 (Primary HTS), 1827 (Project Summary)]. The format is functional.
The nature of data set [13]: alpha-synuclein stem-loop luciferase translation blockers – H4 neuroglioma cells, luminescence, confirmation (AID 1988). The format is functional, cell-based.
Data set [14] deals with BJ. Put plainly: BJ-TERT fibroblast viability loss – cell-based, RAS-independent, luminescence, dose response (AID 1933). The format is functional. Conditions: Homo sapiens.
A short description of data set [15]: Luminescence Cell-Based Dose Response HTS to Identify Activators of 5'UTR Stem-Loop Driven Prion Protein mRNA Translation in H4-C Neuroglioblastoma Cells. [Related pubchem assays: 1829 (Project Summary), 1814 (Primary HTS)]. It is filed as functional.
The test system of data set [16] is BJ. Put plainly: cells. The format is functional, cell-based. Conditions: Homo sapiens.
Data set [17] can be described thus: Luminescence Cell-Based Dose HTS Response to Identify Inhibitors of 5'UTR Stem-Loop Driven Prion Protein mRNA Translation in H4-C Neuroglioblastoma Cells. [Related pubchem assays (depositor defined):AID1814, AID1827]. The format is functional.
The nature of data set [18]: alpha-synuclein stem-loop translation blockers – luminescence, H4 neuroglioblastoma cells, dose confirmation, confirmation (AID 2454).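 Also: H4 neuroglioblastoma cells carrying an alpha-synuclein 5'UTR luciferase reporter; potency for inhibition of the luciferase signal.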 It is filed as functional, cell-based.
The nature of data set [19]: Luminescence Cell-Based Dose Response HTS to Identify Activators of Luciferase Translation or Activity in H4-C Neuroglioblastoma Cells. [Related pubchem assays: 1829 (Project Summary), 1814 (Primary HTS)]. The format is functional.
Data set [20] has as its target Beta-lactamase (Pseudomonas aeruginosa, UniProt Q79MP6).
The target of data set [21] is T1, Insulin-degrading enzyme (Homo sapiens, UniProt P14735). Description: recombinant IDE activation, cell-free – biochemical, fluorescence polarization, counter-screen for IDE activator project, dose response (AID 588681). For orientation: Fluorescence polarisation rises when a labelled molecule tumbles more slowly, as on binding a larger partner.
Data set [22] deals with T1, Insulin-degrading enzyme. Description: cellular IDE activation of Abeta substrate cleavage – fluorescence polarization, HEK cells, dose response (AID 588439). It is filed as functional, cell-based.
The subject of data set [23] is HEK293. Put plainly: optical interference in Abeta FP readout, dose response, artefact control for IDE activator project, biochemical, fluorescence polarization (AID 588442). The format is functional, cell-based. The settings on record: Homo sapiens.
The subject of data set [24] is HEK293. Put plainly: membrane integrity loss in HEK cells – cell-based, fluorescence, cytotoxicity control for IDE activator project, dose response (AID 588440).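 Also: cytotoxicity by LDH release measuring loss of membrane integrity.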 It is filed as functional. The settings on record: Homo sapiens.
Data set [25] deals with ORF 73 (Human herpesvirus 8, UniProt O40947). Put plainly: KSHV LANA DNA-binding disruption – biochemical, fluorescence polarization, cherry-picked samples, dose response (AID 504725).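 Also: fluorescence polarization of a labeled DNA duplex reporting LANA DNA binding; potency is for inhibitors that block LANA binding to the DNA.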 Set-up: species or system Human gammaherpesvirus 8.
Data set [26] concerns the target Beta-lactamase (Salmonella choleraesuis (strain SC-B67), UniProt Q5J463).
Data set [27] addresses T2, DNA dC->dU-editing enzyme APOBEC-3G (Homo sapiens, UniProt Q9HC16). Description: Dose Response confirmation of small molecule APOBEC3G DNA Deaminase Inhibitors via a fluorescence-based single-stranded DNA deaminase assay. [Related pubchem assays (depositor defined):AID493012, AID493028]. It is filed as functional.
Data set [28] concerns the target T2, DNA dC->dU-editing enzyme APOBEC-3G. Description: inhibition of APOBEC3G ssDNA deamination – biochemical, fluorescence, single-stranded DNA substrate, SAR follow-up (AID 602136). The format is functional. The settings on record: read-out: IC50_Mean.
For data set [29] the target is unchanged. Description: SAR analysis of small molecule inhibitors of APOBEC3G DNA Deaminase via a fluorescence-based single-stranded DNA deaminase assay - Set 2. Conditions: read-out: IC50_Mean. The format is functional.
The target in data set [30] is T3, DNA dC->dU-editing enzyme APOBEC-3A (Homo sapiens, UniProt P31941). Put plainly: SAR analysis of small molecule inhibitors of APOBEC3A DNA Deaminase via a fluorescence-based single-stranded DNA deaminase assay - Set 2. It is filed as functional. The settings on record: read-out: IC50_Mean.
Data set [31] has as its target T3, DNA dC->dU-editing enzyme APOBEC-3A. Put plainly: SAR analysis of small molecule inhibitors of APOBEC3A DNA Deaminase via a fluorescence-based single-stranded DNA deaminase assay. It is filed as functional. The settings on record: read-out: IC50_Mean.
Data set [32] deals with Large T antigen (Simian virus 40, UniProt P03070). It is filed as functional, Betapolyomavirus macacae.
Data set [33] has as its target T3, DNA dC->dU-editing enzyme APOBEC-3A. Put plainly: A3A deaminase inhibition for selectivity – biochemical, dose response (AID 504722). It is filed as functional.
Data set [34] has as its target Cytochrome P450 2D6 (Homo sapiens, UniProt P10635).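 Also: CYP2D6 member of a cytochrome P450 panel assay.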
Data set [35] has as its target Cytochrome P450 2C9 (Homo sapiens, UniProt P11712).
The target of data set [36] is DNA topoisomerase (Yersinia pestis, UniProt A0A2S9PM60). Put plainly: Yersinia topoisomerase I cleavage product accumulation – biochemical, cherry-pick, dose response (AID 588525).
The nature of data set [37]: THP-1 cell cytotoxicity, cytotoxicity control, set 4 (AID 504911). The settings on record: Mycobacterium tuberculosis. It is filed as functional.
A short description of data set [38]: THP-1 cell cytotoxicity, cytotoxicity control, set 6 (AID 602433). The format is functional. The settings on record: Mycobacterium tuberculosis.
Data set [39] in a line: THP-1 cell cytotoxicity, dose response, cytotoxicity control, set 3 (AID 504852). The format is functional. The settings on record: Mycobacterium tuberculosis.

Active and inactive are the calls of the source.

Broadly, the EC50 is the concentration giving half of the maximal effect. One may read the AC50 as the concentration at which the activity in the assay is half-maximal. Broadly, the CC50 is the concentration that lowers cell viability or growth by half.

T2 sequence (Q9HC16 whole entry): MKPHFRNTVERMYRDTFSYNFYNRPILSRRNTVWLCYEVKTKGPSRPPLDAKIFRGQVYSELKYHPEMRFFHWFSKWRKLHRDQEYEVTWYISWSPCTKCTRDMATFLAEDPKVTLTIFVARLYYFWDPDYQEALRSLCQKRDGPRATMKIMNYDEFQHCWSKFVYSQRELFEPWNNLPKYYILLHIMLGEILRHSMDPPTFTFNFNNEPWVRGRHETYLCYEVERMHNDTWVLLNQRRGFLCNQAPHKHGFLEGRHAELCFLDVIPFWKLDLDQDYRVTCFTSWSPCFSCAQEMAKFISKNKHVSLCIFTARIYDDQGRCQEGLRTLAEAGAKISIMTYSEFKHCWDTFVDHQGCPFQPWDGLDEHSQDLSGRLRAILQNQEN
T3 sequence (P31941 whole entry): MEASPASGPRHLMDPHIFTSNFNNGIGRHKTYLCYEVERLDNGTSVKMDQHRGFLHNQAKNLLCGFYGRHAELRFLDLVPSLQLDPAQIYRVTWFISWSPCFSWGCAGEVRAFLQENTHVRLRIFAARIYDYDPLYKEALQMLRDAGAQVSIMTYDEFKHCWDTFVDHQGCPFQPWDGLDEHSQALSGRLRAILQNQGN
T1 sequence (P14735 whole entry): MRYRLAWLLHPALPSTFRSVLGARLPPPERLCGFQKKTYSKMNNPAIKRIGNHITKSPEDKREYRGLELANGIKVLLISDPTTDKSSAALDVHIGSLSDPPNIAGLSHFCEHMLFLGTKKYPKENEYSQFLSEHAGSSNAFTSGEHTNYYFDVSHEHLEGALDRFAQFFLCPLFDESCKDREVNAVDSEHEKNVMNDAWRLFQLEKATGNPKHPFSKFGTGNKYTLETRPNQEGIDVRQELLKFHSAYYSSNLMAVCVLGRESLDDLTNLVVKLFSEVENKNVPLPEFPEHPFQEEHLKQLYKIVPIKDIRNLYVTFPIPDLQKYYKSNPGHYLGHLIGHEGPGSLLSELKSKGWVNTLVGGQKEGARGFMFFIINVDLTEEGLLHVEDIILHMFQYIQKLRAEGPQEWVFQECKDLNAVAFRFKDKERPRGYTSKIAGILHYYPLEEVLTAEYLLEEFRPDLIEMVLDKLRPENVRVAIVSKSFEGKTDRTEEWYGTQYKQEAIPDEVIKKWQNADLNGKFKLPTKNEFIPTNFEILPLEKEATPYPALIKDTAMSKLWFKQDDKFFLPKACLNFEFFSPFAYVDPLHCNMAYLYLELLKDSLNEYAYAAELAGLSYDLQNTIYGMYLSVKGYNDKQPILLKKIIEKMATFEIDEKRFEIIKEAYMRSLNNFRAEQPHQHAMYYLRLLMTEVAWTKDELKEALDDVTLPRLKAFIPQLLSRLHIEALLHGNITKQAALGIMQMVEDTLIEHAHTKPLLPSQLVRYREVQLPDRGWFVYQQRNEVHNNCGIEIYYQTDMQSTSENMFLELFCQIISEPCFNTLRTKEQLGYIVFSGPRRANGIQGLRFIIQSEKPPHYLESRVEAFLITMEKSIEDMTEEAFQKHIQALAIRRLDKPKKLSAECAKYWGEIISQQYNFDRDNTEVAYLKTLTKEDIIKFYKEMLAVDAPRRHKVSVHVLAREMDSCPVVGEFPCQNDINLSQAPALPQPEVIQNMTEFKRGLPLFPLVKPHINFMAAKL
Cytochrome P450 2D6, sequence (P10635 whole entry): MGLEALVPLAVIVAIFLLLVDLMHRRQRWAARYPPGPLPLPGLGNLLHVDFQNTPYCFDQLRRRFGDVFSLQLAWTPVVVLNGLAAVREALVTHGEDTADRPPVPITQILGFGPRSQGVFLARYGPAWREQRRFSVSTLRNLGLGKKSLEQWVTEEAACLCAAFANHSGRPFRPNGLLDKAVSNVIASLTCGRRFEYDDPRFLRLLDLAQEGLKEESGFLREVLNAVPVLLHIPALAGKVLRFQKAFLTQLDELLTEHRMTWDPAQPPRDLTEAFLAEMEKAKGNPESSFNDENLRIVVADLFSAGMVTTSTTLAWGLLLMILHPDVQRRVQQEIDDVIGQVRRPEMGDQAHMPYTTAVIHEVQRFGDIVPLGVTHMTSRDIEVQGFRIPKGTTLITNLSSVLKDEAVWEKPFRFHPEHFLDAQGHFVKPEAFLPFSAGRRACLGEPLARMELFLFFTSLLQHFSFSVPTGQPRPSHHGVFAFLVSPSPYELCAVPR
Multidrug resistance protein CDR1, sequence (P43071 whole entry, looked up): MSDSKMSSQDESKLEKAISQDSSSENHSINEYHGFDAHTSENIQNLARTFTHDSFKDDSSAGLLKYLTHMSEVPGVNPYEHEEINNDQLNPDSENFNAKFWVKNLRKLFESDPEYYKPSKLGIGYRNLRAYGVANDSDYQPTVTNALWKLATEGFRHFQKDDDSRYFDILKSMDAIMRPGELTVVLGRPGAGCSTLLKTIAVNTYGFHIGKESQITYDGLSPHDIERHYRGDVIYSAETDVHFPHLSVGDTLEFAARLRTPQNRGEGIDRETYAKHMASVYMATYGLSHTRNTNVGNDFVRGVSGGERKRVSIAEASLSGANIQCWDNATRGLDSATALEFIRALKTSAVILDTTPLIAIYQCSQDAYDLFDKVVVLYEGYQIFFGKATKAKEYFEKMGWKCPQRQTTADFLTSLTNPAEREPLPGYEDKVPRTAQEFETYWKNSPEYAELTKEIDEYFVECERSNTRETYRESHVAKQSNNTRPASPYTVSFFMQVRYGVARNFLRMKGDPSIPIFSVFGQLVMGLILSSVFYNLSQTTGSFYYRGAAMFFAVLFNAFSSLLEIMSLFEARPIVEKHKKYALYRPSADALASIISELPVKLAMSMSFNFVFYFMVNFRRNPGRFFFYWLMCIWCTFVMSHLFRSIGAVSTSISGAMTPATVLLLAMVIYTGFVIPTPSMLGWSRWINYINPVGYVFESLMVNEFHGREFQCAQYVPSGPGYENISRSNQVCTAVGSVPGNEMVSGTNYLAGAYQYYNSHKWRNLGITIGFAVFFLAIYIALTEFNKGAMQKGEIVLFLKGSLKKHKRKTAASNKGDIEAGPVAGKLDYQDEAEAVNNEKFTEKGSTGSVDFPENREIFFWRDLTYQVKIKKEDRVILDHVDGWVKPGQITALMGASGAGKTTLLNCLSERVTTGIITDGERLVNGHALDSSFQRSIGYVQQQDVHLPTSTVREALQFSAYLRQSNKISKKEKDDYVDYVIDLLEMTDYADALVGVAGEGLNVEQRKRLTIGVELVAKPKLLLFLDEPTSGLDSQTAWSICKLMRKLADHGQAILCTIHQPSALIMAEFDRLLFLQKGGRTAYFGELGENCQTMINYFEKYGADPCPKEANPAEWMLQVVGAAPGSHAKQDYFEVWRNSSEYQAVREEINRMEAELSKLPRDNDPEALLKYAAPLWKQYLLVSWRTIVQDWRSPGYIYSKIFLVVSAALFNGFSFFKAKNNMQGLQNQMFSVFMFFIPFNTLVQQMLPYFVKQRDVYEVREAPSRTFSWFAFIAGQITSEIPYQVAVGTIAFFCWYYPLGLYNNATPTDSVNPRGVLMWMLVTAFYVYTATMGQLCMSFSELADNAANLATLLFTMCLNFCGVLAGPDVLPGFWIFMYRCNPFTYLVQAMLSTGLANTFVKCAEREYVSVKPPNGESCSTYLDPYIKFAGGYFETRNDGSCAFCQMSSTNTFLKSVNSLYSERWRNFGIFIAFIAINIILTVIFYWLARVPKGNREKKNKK
Cytochrome P450 2C9, sequence (P11712 whole entry): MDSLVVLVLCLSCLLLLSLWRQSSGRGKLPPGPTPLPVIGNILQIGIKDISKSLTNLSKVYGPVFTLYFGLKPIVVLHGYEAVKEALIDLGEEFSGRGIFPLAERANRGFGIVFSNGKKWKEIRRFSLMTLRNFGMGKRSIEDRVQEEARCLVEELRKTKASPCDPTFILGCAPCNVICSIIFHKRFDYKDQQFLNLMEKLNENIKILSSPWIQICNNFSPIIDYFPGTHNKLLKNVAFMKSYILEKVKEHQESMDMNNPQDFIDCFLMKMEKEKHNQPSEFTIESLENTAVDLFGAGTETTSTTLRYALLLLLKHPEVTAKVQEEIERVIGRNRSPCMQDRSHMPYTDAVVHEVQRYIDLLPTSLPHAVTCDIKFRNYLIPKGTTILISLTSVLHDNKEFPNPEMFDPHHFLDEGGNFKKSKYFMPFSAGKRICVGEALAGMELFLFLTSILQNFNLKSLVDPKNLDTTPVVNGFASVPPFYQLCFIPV
Protein disulfide-isomerase, sequence (P07237 whole entry): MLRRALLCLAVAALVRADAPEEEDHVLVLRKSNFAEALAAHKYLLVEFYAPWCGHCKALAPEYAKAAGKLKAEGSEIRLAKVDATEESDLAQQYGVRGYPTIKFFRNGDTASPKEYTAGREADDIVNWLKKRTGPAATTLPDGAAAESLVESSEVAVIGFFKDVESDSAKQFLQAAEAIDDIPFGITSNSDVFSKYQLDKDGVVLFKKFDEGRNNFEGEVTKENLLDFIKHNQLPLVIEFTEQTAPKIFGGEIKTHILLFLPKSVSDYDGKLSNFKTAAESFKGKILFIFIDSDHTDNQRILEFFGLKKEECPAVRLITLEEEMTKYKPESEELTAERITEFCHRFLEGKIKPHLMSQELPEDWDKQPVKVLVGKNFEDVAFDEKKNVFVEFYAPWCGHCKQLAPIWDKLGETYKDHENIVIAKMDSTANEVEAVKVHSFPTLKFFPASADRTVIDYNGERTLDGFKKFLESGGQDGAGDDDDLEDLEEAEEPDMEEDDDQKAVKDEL
Beta-lactamase (Pseudomonas aeruginosa, UniProt Q79MP6), sequence (Q79MP6 whole entry): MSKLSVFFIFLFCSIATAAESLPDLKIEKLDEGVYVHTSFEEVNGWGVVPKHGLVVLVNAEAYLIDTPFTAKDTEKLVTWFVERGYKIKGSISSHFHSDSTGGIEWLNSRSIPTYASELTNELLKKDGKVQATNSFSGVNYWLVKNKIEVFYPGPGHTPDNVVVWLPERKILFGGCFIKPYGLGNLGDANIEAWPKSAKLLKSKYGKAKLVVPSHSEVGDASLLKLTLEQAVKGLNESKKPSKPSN

Regarding `Cc1ccc(S(=O)(=O)N2CCOCC2)cc1NC(=O)COC(=O)CNC(=O)c1ccccc1`, the concentration giving a half-maximal response (EC50) is 18 nM (active) in data set [1] and 65 nM (active) in data set [2].
Consider `Cc1c(O)ccc2c(CC(=O)N[C@@H](Cc3c[nH]c4ccccc34)C(=O)O)cc(=O)oc12`, for which the concentration at half-maximal activity (AC50) in data set [3] was 6760 nM (active).
In the case of `CCOC(=O)c1[nH]c(C)c(C(=O)N2CCc3ccccc32)c1C`, the EC50 in data set [4] was 252 nM (active); in data set [5], 420 nM (inconclusive); in data set [6], 1070 nM (active); in data set [7], 2130 nM (active); in data set [8] it was 1220 nM (active); in data set [9], 656 nM (active). In addition, the EC50 is 4630 nM (inconclusive) in data set [10]; 4650 nM (active) in [11]; 1010 nM (active) in [12]; < 100 nM (active) in data set [13]; 704 nM (inconclusive) in [14]; 353 nM (inconclusive) in [15]. Besides, the concentration giving a half-maximal response (EC50) in data set [16] is 10800 nM (active); in data set [17], 2330 nM (active); in data set [18], 1300 nM (active); in [19] it was 630 nM (inconclusive).
As to `CCOc1ccc(/C=C2\CCCc3c2nc2ccccc2c3C(=O)O)cc1OC`, the IC50 in data set [20] was 53100 nM (inactive); in data set [24], > 89200 nM (inactive); in data set [26] it was 10900 nM (inactive). For the same compound, the values for the EC50 in data set [21], in data set [22] and in data set [23] were > 54700 nM (inactive), > 54700 nM (inactive) and 5380 nM (active), respectively. The concentration at half-maximal activity (AC50) in data set [25] was 908 nM (active).
On to `CCCCCn1c(=O)c2ccccc2n2c(S)nnc12`, for which the IC50 is 1470 nM (active) in data set [27]; 1200 nM (active) in data set [28]; 1600 nM (active) in [29]; > 99000 nM (inactive) in data set [30]; > 99000 nM (inactive) in data set [31]; 16800 nM (active) in data set [32]. Moreover, the IC50 in data set [33] is > 100000 nM (inactive).
Take `Clc1cccc(CSc2nnc(-c3sccc3-n3cccc3)o2)c1`: the AC50 was 398 nM (inconclusive) in data set [34], “inconclusive” in [35] and 5150 nM (active) in data set [36].
Regarding `CC(C)CCNC(=O)CSc1nc(O)c2ccccc2n1`, the CC50 in data set [37], in data set [38] and in data set [39] was > 100000 nM (active) in each case.

Source of the values: ChEMBL document CHEMBL1201862, “PubChem BioAssay data set” (2004).
